Experimental data reported in US20160251289A1, “USE OF ALKANE SULFONIC ACID FOR PREPARING PHENOLIC ALCOHOL” (ARKEMA FRANCE, priority 2013, published 2016).
Read-outs that look alike come from different tables or passages of the source.

Experiments:
[1] = for Solubility (mass %): phenol/water (95/5) weight mixture; for times more soluble than potassium sulfate: phenol/water (95/5)
Method: Solubility of the Salts in a Phenol/Water (95/5) Weight Mixture:
A first measurement is taken at 55° C. at atmospheric pressure, and a second measurement is then taken at 100° C.

[2] = for Solubility (mass %): phenol/acetone/water (50/50/5) weight mixture; for times more soluble than potassium sulfate: phenol/acetone/water (50/50/5)
Method: 25 g of test solvent are placed in a 50 mL three-necked flask equipped with a condenser, a thermometer and a magnetic stirrer. The solvent is brought to the desired temperature and the alkanesulfonic acid salt is then added portionwise until cloudiness appears, indicating saturation of the medium.
The solubility is calculated in the following manner:
% salt solubility=m/(m+M)×100
with m=mass of dissolved salt, M=mass of solvent
1. Solubility of the Salts in a Phenol/Acetone/Water (50/50/5) Weight Mixture:
A first measurement is taken at 20° C. at atmospheric pressure, and a second measurement is then taken at 60° C. […] 1.1 Potassium Salts

CS(=O)(=O)[O-].[K+] [CH3SO3K, potassium methanesulfonate]
Solubility (mass %) ([1]; 55° C., atmospheric pressure): 1.90% mass % | Solubility (mass %) ([1]; 100° C.): 2.40% mass % | times more soluble than potassium sulfate ([1]; printed as at 20° C.): 15 times | times more soluble than potassium sulfate ([1]; printed as at 60° C.): 8 times | Solubility (mass %) ([2]; 20° C., atmospheric pressure): 0.80% mass % | Solubility (mass %) ([2]; 60° C.): 0.80% mass % | times more soluble than potassium sulfate ([2]; at 20° C.): more than 6.7 times | times more soluble than potassium sulfate ([2]; at 60° C.): more than 6.7 times
